US12187705B2, “Heteroaryl-triazole and heteroaryl-tetrazole compounds as pesticides” (Bayer Aktiengesellschaft, priority 2018, dated 2025)

Assays:
Type in all cases: in vivo
Ctenocephalides felis [1] = experiment: Ctenocephalides felis oral test; conditions: Ctenocephalides felis, in Bos taurus, po, 48 h
Description: Ctenocephalides felis—Oral Test
(§1) Solvent: dimethyl sulfoxide
To produce a suitable preparation of active compound, 10 mg of active compound are dissolved in 0.5 ml solvent, and the concentrate is diluted with cattle blood to the desired concentration.
Approximately 20 adult unfed cat fleas (Ctenocephalides felis) are placed in flea chambers. The blood chamber, sealed with parafilm on the bottom, are filled with cattle blood supplied with compound solution and placed on the gauze covered top of the flea chamber, so that the fleas are able to suck the blood. The blood chamber is heated to 37° C. whereas the flea chamber is kept at room temperature.
After 2 days mortality in % is determined. 100% means all the fleas have been killed; 0% means none of the fleas have been killed.

Nilaparvata lugens = Nilaparvata lugens spray test; conditions: Nilaparvata lugens, in Oryza sativa, 96 h
Description: Nilaparvata lugens—Spray Test
(§2) To produce a suitable preparation of active compound, 1 part by weight of active compound is mixed with the stated amount of solvents and is diluted with water, containing an emulsifier concentration of 1000 ppm, to the desired concentration. Further test concentrations are prepared by dilution with emulsifier containing water.
Rice plants (Oryza sativa) are sprayed with a preparation of the active ingredient of the desired concentration and the plants are infested with the brown planthopper (Nilaparvata lugens).
After 4 days mortality in % is determined. 100% means all planthoppers have been killed and 0% means none of the planthoppers have been killed.

Ctenocephalides felis [2] = experiment: Ctenocephalides felis in-vitro contact test adult cat flea; conditions: Ctenocephalides felis; 5 μg/cm^2 (=500 g/ha), after 48 hours; read-out: efficacy (fleas dead or moribund)
Description: Ctenocephalides felis—In-Vitro Contact Test Adult Cat Flea
9 mg compound is solved in 1 ml acetone and diluted with acetone to the desired concentration. 250 μl of the test solution is filled in 25 ml glass test tubes and homogeneously distributed on the inner walls by rotation and tilting on a shaking device (2 h at 30 rpm). With a compound concentration of 900 ppm, an inner surface of 44.7 cm^2 and a homogeneous distribution, a dose of 5 μg/cm^2 is achieved.
After the solvent has evaporated, each test tube is filled with 5-10 adult cat fleas (Ctenocephalides felis), closed with a perforated lid and incubated in a lying position at room temperature and relative humidity. After 48 hours efficacy is determined. The fleas are patted on the ground of the tubes and are incubated on a heating plate at 45-50° C. for at most 5 minutes. Immotile or uncoordinated moving fleas, which are not able to escape the heat by climbing upwards, are marked as dead or moribund.
An efficacy of 100% means all fleas are dead or moribund; 0% means no fleas are dead or moribund.

Nezara viridula = Nezara viridula spray test; conditions: in Hordeum vulgare, 96 h
Description: Nezara viridula—Spray Test
as §2, with “solvent,” for “solvents”, “and the concentrate” for “and”
Barley plants (Hordeum vulgare) infested with larvae of the southern green stink bug (Nezara viridula) are sprayed with a test solution containing the desired concentration of the active ingredient.
After 4 days mortality in % is determined. 100% means all the stink bugs have been killed; 0% means none of the stink bugs have been killed.

Diabrotica balteata = Diabrotica balteata spray test; conditions: Diabrotica balteata, 168 h; 160 μg/well, wheat seeds, after 7 days; read-out: efficacy (seedlings grown)
Description: Diabrotica balteata—Spray Test
as §2, with “solvent,” for “solvents”, “and the concentrate” for “and”
Soaked wheat seeds (Triticum aestivum) are placed in a multiple well plate filled with agar and some water and are incubated for 1 day to germinate (5 seeds per well). The germinated wheat seeds are sprayed with a test solution containing the desired concentration of the active ingredient. Afterwards each unit is infected with 10-20 larvae of the banded cucumber beetle (Diabrotica balteata).
After 7 days efficacy in % is determined. 100% means all the seedlings have grown up like in the untreated, uninfected control; 0% means none of the seedlings have grown.

Myzus persicae [3] = experiment: Myzus persicae spray test; conditions: in Brassica rapa, foliar, 120 h
Description: Myzus persicae—Spray Test
as §2
Chinese cabbage (Brassica pekinensis) leaf disks infected with all instars of the green peach aphid (Myzus persicae), are sprayed with a preparation of the active ingredient of the desired concentration.
(§3) After 5 days mortality in % is determined. 100% means all aphids have been killed and 0% means none of the aphids have been killed.

Myzus persicae [4] = experiment: Myzus persicae oral test; conditions: 120 h
Description: To produce a suitable preparation of active compound, 1 part by weight of active compound is mixed with the stated amount of solvent, and the concentrate is diluted with water to the desired concentration.
50 μl compound solution is filled in microtiter plates and 150 μl IPL41 insect medium (33%+15% sugar) is added to obtain a total volume of 200 μl per well. Afterwards the plates are sealed with parafilm through which a mixed population of the green peach aphid (Myzus persicae) can suck on the compound preparation.
as §3

Spodoptera frugiperda = Spodoptera frugiperda spray test; conditions: in Zea mays, 168 h
Description: Spodoptera frugiperda—Spray Test
as §2
Maize (Zea mays) leaf sections are sprayed with a preparation of the active ingredient of the desired concentration. Once dry, the leaf sections are infested with fall armyworm larvae (Spodoptera frugiperda).
After 7 days mortality in % is determined. 100% means all caterpillars have been killed and 0% means none of the caterpillars have been killed.

Boophilus microplus = Boophilus microplus injection test; conditions: Rhipicephalus microplus, 168 h, 20 μg/animal, egg deposition after 7 days, read-out: efficacy (infertile eggs)
Description: Boophilus microplus—Injection Test
as §1
To produce a suitable preparation of active compound, 10 mg of active compound are dissolved in 0.5 ml solvent, and the concentrate is diluted with solvent to the desired concentration.
Five adult engorged female ticks (Boophilus microplus) are injected with 1 μl compound solution into the abdomen. The ticks are transferred into replica plates and incubated in a climate chamber.
After 7 days egg deposition of fertile eggs is monitored. Eggs where fertility is not visible are stored in a climate chamber till hatching after about 42 days. An efficacy of 100% means all eggs are infertile; 0% means all eggs are fertile.

| SMILES | mortality at 100 ppm (Ctenocephalides felis [1]) | mortality at 500 g/ha (Nilaparvata lugens) | pest or weed control at 5 µg/cm2, 5 µg/cm2 (Ctenocephalides felis [2]) | mortality at 500 g/ha (Nezara viridula) | pest or weed control at 160 µg/disc, 160 µg/well (Diabrotica balteata) | mortality at 500 g/ha (Myzus persicae [3]) | mortality at 4 ppm (Myzus persicae [4]) | mortality at 500 g/ha (Spodoptera frugiperda) | pest or weed control at 0.02 mg (Boophilus microplus) |
| --- | --- | --- | --- | --- | --- | --- | --- | --- | --- |
| COC[C@H](NC(=O)c1cc(Cl)cc(S(C)(=O)=O)c1)c1ncnn1-c1ncccn1 [Example I-059] | 100% | 100% | 80% |  |  |  |  |  |  |
| C[C@@H](NC(=O)c1cc(Cl)cc(C(C)(C)C)c1)c1ncnn1-c1ncccn1 [Example I-124] |  |  |  | 100% | 100% | 100% |  |  |  |
| C[C@H](NC(=O)c1cc(Cl)cc(S(=O)(=O)C(F)(F)F)c1)c1ncnn1-c1ncccn1 [Example I-033, 3-chloro-N-{(1S)-1-[1-(pyrimidin-2-yl)-1H-1,2,4-triazol-5-yl]ethyl}-5-[(trifluoromethyl)sulfonyl]benzamide] |  | 100% |  | 100% | 100% |  | 100% | 100% |  |
| C[C@@H](NC(=O)c1csc(Cl)c1)c1ncnn1-c1ccc(C#N)cn1 [Example I-114] |  |  |  |  | 100% | 90% |  |  |  |
| C[C@H](NC(=O)c1cc(Cl)cc(C2(C#N)CC2)c1)c1ncnn1-c1ccc(C#N)cn1 [Example I-119, 3-chloro-5-(1-cyanocyclopropyl)-N-{(1S)-1-[1-(5-cyanopyridin-2-yl)-1H-1,2,4-triazol-5-yl]ethyl}benzamide] |  |  |  | 100% | 100% | 90% | 100% | 100% |  |
| CC(C)S(=O)(=O)c1cc(Cl)cc(C(=O)N[C@@H](C)c2ncnn2-c2ncccn2)c1 [Example I-051, 3-chloro-5-(isopropylsulfonyl)-N-{(1S)-1-[1-(pyrimidin-2-yl)-1H-1,2,4-triazol-5-yl]ethyl}benzamide] | 100% |  | 80% | 100% | 100% |  | 100% | 100% | 100% |
| Cc1cnc(-n2ncnc2[C@@H](C)NC(=O)c2cc(Cl)cc(S(=O)(=O)C(F)(F)F)c2)nc1 [Example I-099] |  |  |  | 100% | 100% | 100% | 100% | 100% |  |
